Results on two molecules are retold here after publication PMC11945475, “Nasal Administration of a Nanoemulsion Based on Methyl Ferulate and Eugenol Encapsulated in Chitosan Oleate: Uptake Studies in the Central Nervous System” (Pharmaceutics, 2025).

Series [1] can be described thus: Intravenous administration of Fer-Me to rats (bloodstream and CSF pharmacokinetics). In kind it is in vivo, rat. The conditions noted are these: rat, in vivo, iv. The procedure: Charles River laboratories, Calco, Italy) bloodstream and CSF. […] The sample size (4 rats/group) has been chosen based on our previous studies. The experimental procedures were approved by the Italian Ministry of Health and were performed in accordance with the European Communities Council Directive of September 2010 (2010/63/EU). According to the ARRIVE guidelines, all possible efforts were made to minimize animal pain and discomfort and to reduce the number of experimental subjects. Fer-Me solution (2.5 mg/mL final concentration, 15% v/v EtOH content) was prepared by first dissolving Fer-Me in EtOH and then adding this latter solution to a saline solution (0.9% NaCl). […] The aqueous phase was then subjected to a double extraction with 1 mL of H2O-saturated ethyl acetate. […] Data were acquired and processed through CLASS-VP Software; version 7.2.1 (Shimadzu Italia, Milan, Italy). The mobile phase was eluted under isocratic conditions (0.8 mL/min) and was constituted by a mixture of acetic acid in H2O (0.4% v/v) and MeOH, whose ratio was 40:60 (v/v). The UV-Vis detector was set at 320 nm for the detection of Fer-Me, its hydrolysis product Fer, and Caf-Me, which was utilized as an internal standard during blood sample extraction. […] The average recoveries were approximately 40% for Fer and 58% for Fer-Me. For this reason, the concentrations of these compounds were determined by their peak area ratio with respect to the internal standard (Caf-Me). […] Fer-Me in vivo half-life (t1/2) in the rats' bloodstream was determined using nonlinear regression (exponential decay) of concentration values quantified at appropriate time intervals after infusion, further validated by applying linear regression to the semi-logarithmic plot.

For series [2] the following is noted: cited from earlier work.
For series [3] the following is noted: cited from earlier work. This is another data set of the same source.

Structures are written as SMILES. Read-outs that look alike come from different tables or passages of the source.

As for `COC(=O)/C=C/c1ccc(O)c(OC)c1` [Fer-Me, methyl ferulate], the “Tmax in CSF” value in series [1] was 20 min. The “kinetic elimination constant (kel)” value in series [1] (10 mg/kg) stood at 0.069 ± 0.003 min⁻¹.

As for `C=CCc1ccc(O)c(OC)c1` [eugenol], in series [2] (eugenol oral administration), the absolute bioavailability entry is given as “about 4%”. In addition, the “AUC in CSF” value in series [2] (rat, oral dose of 500 mg/kg of eugenol) was 30.97 ± 2.18 µg·min/mL. The “permanence in the rat CSF” value in series [3] (in vivo) is 50 min. For the same molecule, in series [3] (rat, eugenol 20 mg/kg i.v.), the “AUC in CSF” value is 56.1 ± 4.2 µg·min/mL and the “Tmax in CSF” value was 10 min. For the same molecule, in series [3] (rat, in vivo, iv, 20 mg/kg), the “t1/2 in the bloodstream” value is “about 20 min”.
